Patent publication US10765115B2 (priority 2015, dated 2020)

What was measured:
legionella bacteria = type: cell-based; conditions: initial 10^7 CFU/100 mL, after 24 hours, 36° C., pH 7.0
[1] = type: physicochemical; conditions: pH 7

Compound | Sterilizing rate (legionella bacteria) [%] | Residual concentration Cl2 (monochlorosulfamic acid as Cl2) [1] [mg/L] | Residual concentration Cl-MIT [1] [µg/L]
Cn1sc(Cl)cc1=O [Sample 11, 5-chloro-2-methyl-4-isothiazoline-3-one] | 100 | 0 | 2.1
Cn1sc(Cl)cc1=O [Sample 17, 5-chloro-2-methyl-4-isothiazoline-3-one] | – | 0 | 600.0
Cn1sc(Cl)cc1=O [Sample 19, 5-chloro-2-methyl-4-isothiazoline-3-one] | – | 0 | 1500.0
